Measured values published in publication PMC11173382, “In Vitro Investigations into the Potential Drug Interactions of Pseudoginsenoside DQ Mediated by Cytochrome P450 and Human Drug Transporters” (Molecules, 2024).
Read-outs that look alike come from different tables or passages of the source.

Legend:
Format in all cases: in vitro ADME
CYP3A4 = target: T1, CYP3A4 (Homo sapiens, UniProt P08684); test: CYP450 inhibition assay in human liver microsomes, CYP3A4 (midazolam and testosterone)
T1 construct: tissue Corning 452117; host or cells: human liver microsomes
Experimental: (§1) To evaluate the reliability and reproducibility of the CYP450 inhibition assay, we measured the inhibitory effects of selected positive control inhibitors of each CYP450 enzyme in human liver microsomes (HLM, Table 1, Figure 2). The potency of inhibition was estimated by observing the alteration in concentration of metabolites of CYP450 substrates (Table 1).
(§2) Reagents preparation. […] The stock solution of PDQ (10 mM) was prepared with methanol and further diluted to the range of 3 µM to 3 mM with methanol to ensure that the solvent of different PDQ samples contained the same amount (1%) of methanol.
(§3) The stock solutions of the positive control inhibitors and the probe substrates of CYP450 enzymes were prepared in methanol.
(§4) CYP450 inhibition assay. […] The assay was conducted in polypropylene 96-well plates (2.2 mL/well, Apricot Designs Inc., Covina, CA, USA).
The total volume of the reaction is 200 μL. The HLM mixtures (102 μL) containing individual probe substrates (Table 3), KH2PO4 buffer (100 mM, pH 7.4), and either PDQ or the positive control inhibitors (Table 3) were incubated for 10 min at 37 °C in a shaking incubator. Reactions were initiated by adding 98 μL NADPH (final concentration is 1.3 mM NADPH, 3 mM MgCl2 in 100 mM KH2PO4 buffer). The HLM reaction mixtures were shaken at 37 °C for various times (Table 4). The reaction time of CYP3A4 (midazolam), CYP2C19 and CYP2D6 were 3, 20 and 20 min, respectively, while the reactions of other CYP enzymes were terminated after 10 min. The reactions were quenched by adding 200 μL acetonitrile containing 3% formic acid and specific internal standards (Table 4). After shaking at 1000 rpm for 10 min, the reaction mixtures were centrifuged at 4000 rpm for 20 min. Supernatants were diluted with ultrapure water (Table 4) and shaken for 10 min at 1000 rpm. […] The substrates and analytes were analyzed by LC-MS/MS (API4000, Applied Biosystems, Singapore; HPLC, Shimadzu, Japan). […]
(§5) Data analysis. […] The IC50 was determined by fitting the dependence of the relative remaining activity (y = Vi/V0) to the following three-parameter equation (Equation (1)). […]

CYP2C8 = target: T2, CYP2C8 (Homo sapiens, UniProt P10632); test: CYP450 inhibition assay in human liver microsomes, CYP2C8; conditions: HLM 0.1 mg/mL; probe amodiaquine 2 µM; 10 min
T2 sequence (P10632 1-490): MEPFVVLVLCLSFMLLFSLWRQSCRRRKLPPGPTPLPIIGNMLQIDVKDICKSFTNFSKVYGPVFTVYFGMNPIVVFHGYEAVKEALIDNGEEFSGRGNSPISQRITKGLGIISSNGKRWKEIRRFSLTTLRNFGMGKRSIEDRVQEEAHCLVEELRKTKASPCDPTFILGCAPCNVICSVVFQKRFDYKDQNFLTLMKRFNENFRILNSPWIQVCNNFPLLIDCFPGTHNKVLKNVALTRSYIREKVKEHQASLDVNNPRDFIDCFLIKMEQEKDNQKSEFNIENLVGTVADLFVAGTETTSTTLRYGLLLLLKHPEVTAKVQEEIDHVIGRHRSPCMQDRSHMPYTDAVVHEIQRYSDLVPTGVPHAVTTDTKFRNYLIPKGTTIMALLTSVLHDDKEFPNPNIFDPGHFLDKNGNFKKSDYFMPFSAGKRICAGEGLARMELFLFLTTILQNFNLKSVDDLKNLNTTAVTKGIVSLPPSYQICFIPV
Experimental: as §1, §2, §3, §4
(§6) The total volume of the reaction is 200 μL. […] The substrates and analytes were analyzed by LC-MS/MS (API4000, Applied Biosystems, Singapore; HPLC, Shimadzu, Japan). […]
as §5

CYP2D6 = target: T3, CYP2D6 (Homo sapiens, UniProt P10635); test: CYP450 inhibition assay in human liver microsomes, CYP2D6; conditions: HLM 0.1 mg/mL; probe dextromethorphan 10 µM; 20 min
T3 construct: tissue Corning 452117; host or cells: human liver microsomes
Experimental: as §1, §2, §3, §4, §6, §5

hOATP1B1 = target: T4, hOATP1B1 (Homo sapiens, UniProt Q9Y6L6); test: Substrates uptake assay, HEK293A-OATP1B1 cells (3H-ES); conditions: HEK293A-OATP1B1; 3H-ES 0.1 µM; 2 min
T4 sequence (Q9Y6L6 1-691): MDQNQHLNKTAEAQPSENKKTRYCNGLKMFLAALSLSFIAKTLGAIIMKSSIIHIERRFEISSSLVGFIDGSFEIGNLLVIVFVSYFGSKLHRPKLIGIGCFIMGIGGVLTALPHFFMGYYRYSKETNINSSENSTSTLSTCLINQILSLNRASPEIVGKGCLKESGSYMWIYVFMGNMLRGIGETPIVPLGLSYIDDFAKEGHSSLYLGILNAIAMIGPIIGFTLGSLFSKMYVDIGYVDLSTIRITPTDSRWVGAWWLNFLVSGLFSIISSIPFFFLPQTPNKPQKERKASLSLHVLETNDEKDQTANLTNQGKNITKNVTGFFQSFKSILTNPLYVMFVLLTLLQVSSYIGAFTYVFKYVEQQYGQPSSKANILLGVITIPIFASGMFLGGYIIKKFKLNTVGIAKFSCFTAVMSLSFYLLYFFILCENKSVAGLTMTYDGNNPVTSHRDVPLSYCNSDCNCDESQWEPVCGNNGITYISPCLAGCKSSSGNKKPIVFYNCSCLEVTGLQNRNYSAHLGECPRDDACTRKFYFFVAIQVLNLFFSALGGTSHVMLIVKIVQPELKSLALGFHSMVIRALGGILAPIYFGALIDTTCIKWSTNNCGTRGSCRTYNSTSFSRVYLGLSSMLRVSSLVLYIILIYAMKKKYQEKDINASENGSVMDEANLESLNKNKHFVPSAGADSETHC

T1 sequence (P08684 whole entry): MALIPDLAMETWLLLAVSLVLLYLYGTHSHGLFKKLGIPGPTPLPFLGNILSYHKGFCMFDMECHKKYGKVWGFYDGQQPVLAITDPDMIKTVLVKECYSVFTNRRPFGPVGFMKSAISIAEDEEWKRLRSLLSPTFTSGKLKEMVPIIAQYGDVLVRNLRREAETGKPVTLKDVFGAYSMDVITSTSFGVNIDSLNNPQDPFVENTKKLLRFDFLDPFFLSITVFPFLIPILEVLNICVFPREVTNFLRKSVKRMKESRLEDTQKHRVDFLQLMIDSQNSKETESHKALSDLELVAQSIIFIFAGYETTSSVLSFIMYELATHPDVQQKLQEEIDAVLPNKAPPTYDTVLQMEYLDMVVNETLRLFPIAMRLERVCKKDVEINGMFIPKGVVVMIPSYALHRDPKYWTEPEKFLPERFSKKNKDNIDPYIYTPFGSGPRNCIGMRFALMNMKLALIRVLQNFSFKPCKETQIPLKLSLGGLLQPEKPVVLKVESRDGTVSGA
T3 sequence (P10635 whole entry): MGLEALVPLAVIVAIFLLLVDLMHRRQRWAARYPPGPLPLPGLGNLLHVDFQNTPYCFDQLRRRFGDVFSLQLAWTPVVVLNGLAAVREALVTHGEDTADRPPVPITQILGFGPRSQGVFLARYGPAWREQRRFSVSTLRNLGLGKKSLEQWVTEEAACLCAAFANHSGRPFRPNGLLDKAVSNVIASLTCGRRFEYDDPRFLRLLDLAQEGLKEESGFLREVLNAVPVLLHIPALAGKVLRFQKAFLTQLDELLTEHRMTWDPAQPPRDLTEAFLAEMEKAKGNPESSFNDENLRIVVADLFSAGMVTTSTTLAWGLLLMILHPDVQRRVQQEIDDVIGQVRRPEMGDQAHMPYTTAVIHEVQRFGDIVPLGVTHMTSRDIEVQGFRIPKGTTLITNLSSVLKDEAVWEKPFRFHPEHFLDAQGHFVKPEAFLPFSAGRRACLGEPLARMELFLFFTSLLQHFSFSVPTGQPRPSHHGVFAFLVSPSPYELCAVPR

Question: For `CC(C)(O)[C@@H]1CC[C@@](C)([C@H]2CC[C@]3(C)[C@@H]2[C@H](O)C[C@@H]2[C@@]4(C)CC[C@H](O)C(C)(C)[C@@H]4CC[C@]23C)O1` [PDQ, (20S,24S)-dammar-20,24-epoxy-3β, 12β, 25-triol], which IC50 (CYP3A4; HLM 0.1 mg/mL, probe midazolam 2 µM, 3 min, read-out: IC50 on CYP3A4 (Midazolam)) is on record?
Answer: 2.02 µM

Question: What about the IC50 (CYP3A4; HLM 0.1 mg/mL, probe testosterone 40 µM, 10 min, read-out: IC50 on CYP3A4 (Testosterone)) of the same compound?
Answer: 6.79 µM

Question: And the IC50 (CYP3A4; HLM, midazolam and testosterone as substrates, read-out: IC50 on CYP3A4 (range over both substrates))?
Answer: 2.02 to 6.79 µM

Question: And the IC50 (CYP2C8)?
Answer: 16.4 µM

Question: And the IC50 (CYP2D6)?
Answer: 52 µM

Question: What about the IC50 (hOATP1B1) of the same compound?
Answer: 13.1 µM
